Read-outs that look alike come from different tables or passages of the source.
Tested on: PABPC1 PABC
Format: binding, human
Conditions: DMS-BM library, bait PABPC1 PABC, row aa = residue at this position; for DMS-derived PSSM value (averaged), position A6 / DMS-derived PSSM value, position A8: A = wild type; for DMS-derived PSSM value, position R12 / DMS-derived PSSM value (averaged), position R12: R = wild type; for DMS-derived PSSM value (averaged), position E8: E = wild type
[1] = prey ATXN2, TLNPNAKEFNPRSF(averaged) over the two overlapping peptides
[2] = prey ATXN2, peptide TLNPNAKEFNPRSFSQ, F = wild type
[3] = prey ATXN2, peptide TLNPNAKEFNPRSFSQ, S = wild type
[4] = prey ATXN2, peptide TLNPNAKEFNPRSFSQ
[5] = prey ATXN2, peptide KSTLNPNAKEFNPRSF
[6] = prey ATXN2, peptide TLNPNAKEFNPRSFSQ, T = wild type
[7] = prey ATXN2, peptide KSTLNPNAKEFNPRSF, F = wild type
[8] = prey ATXN2, TLNPNAKEFNPRSF(averaged) over the two overlapping peptides, N = wild type
[9] = prey ATXN2, peptide TLNPNAKEFNPRSFSQ, P = wild type
[10] = prey ATXN2, peptide KSTLNPNAKEFNPRSF, N = wild type
[11] = prey ATXN2, peptide TLNPNAKEFNPRSFSQ, L = wild type
[12] = prey ATXN2, peptide TLNPNAKEFNPRSFSQ, N = wild type
[13] = prey ATXN2, TLNPNAKEFNPRSF(averaged) over the two overlapping peptides, K = wild type
[14] = prey ATXN2, peptide KSTLNPNAKEFNPRSF, P = wild type
[15] = prey ATXN2, TLNPNAKEFNPRSF(averaged) over the two overlapping peptides, P = wild type
[16] = prey ATXN2, TLNPNAKEFNPRSF(averaged) over the two overlapping peptides, L = wild type

TLNPNAKEFNPRSF(averaged) A6M (TLNPNMKEFNPRSF)
DMS-derived PSSM value (averaged), position A6 [1]: 0

KSTLNPNAKEFNPRSF K9T (KSTLNPNATEFNPRSF)
DMS-derived PSSM value, position K9 (prey ATXN2, peptide KSTLNPNAKEFNPRSF, K = wild type): 0.02286

TLNPNAKEFNPRSFSQ F14R (TLNPNAKEFNPRSRSQ)
DMS-derived PSSM value, position F14 [2]: 0.0002828

TLNPNAKEFNPRSFSQ S13T (TLNPNAKEFNPRTFSQ)
DMS-derived PSSM value, position S13 [3]: 0.105

TLNPNAKEFNPRSFSQ R12D (TLNPNAKEFNPDSFSQ)
DMS-derived PSSM value, position R12 [4]: 0.05154

KSTLNPNAKEFNPRSF A8H (KSTLNPNHKEFNPRSF)
DMS-derived PSSM value, position A8 [5]: 0

TLNPNAKEFNPRSFSQ T1H (HLNPNAKEFNPRSFSQ)
DMS-derived PSSM value, position T1 [6]: 0.01756

KSTLNPNAKEFNPRSF F11W (KSTLNPNAKEWNPRSF)
DMS-derived PSSM value, position F11 [7]: 0.203

TLNPNAKEFNPRSFSQ R12N (TLNPNAKEFNPNSFSQ)
DMS-derived PSSM value, position R12 [4]: 0.04731

TLNPNAKEFNPRSF(averaged) A6P (TLNPNPKEFNPRSF)
DMS-derived PSSM value (averaged), position A6 [1]: 0

TLNPNAKEFNPRSFSQ S15P (TLNPNAKEFNPRSFPQ)
DMS-derived PSSM value, position S15 [3]: 0.326

KSTLNPNAKEFNPRSF S2T (KTTLNPNAKEFNPRSF)
DMS-derived PSSM value, position S2 (prey ATXN2, peptide KSTLNPNAKEFNPRSF, S = wild type): 0.02133

TLNPNAKEFNPRSF(averaged) N5T (TLNPTAKEFNPRSF)
DMS-derived PSSM value (averaged), position N5 [8]: 0.01041

TLNPNAKEFNPRSFSQ P4D (TLNDNAKEFNPRSFSQ)
DMS-derived PSSM value, position P4 [9]: 0

KSTLNPNAKEFNPRSF N5K (KSTLKPNAKEFNPRSF)
DMS-derived PSSM value, position N5 [10]: 0

TLNPNAKEFNPRSFSQ L2D (TDNPNAKEFNPRSFSQ)
DMS-derived PSSM value, position L2 [11]: 0

TLNPNAKEFNPRSFSQ N5E (TLNPEAKEFNPRSFSQ)
DMS-derived PSSM value, position N5 [12]: 3.906e-5

KSTLNPNAKEFNPRSF N12M (KSTLNPNAKEFMPRSF)
DMS-derived PSSM value, position N12 [10]: 0.08333

TLNPNAKEFNPRSFSQ L2V (TVNPNAKEFNPRSFSQ)
DMS-derived PSSM value, position L2 [11]: 0

TLNPNAKEFNPRSFSQ S13M (TLNPNAKEFNPRMFSQ)
DMS-derived PSSM value, position S13 [3]: 0.008683

TLNPNAKEFNPRSFSQ P4E (TLNENAKEFNPRSFSQ)
DMS-derived PSSM value, position P4 [9]: 0.001688

TLNPNAKEFNPRSF(averaged) T1I (ILNPNAKEFNPRSF)
DMS-derived PSSM value (averaged), position T1 (prey ATXN2, TLNPNAKEFNPRSF(averaged) over the two overlapping peptides, T = wild type): 0.08555

TLNPNAKEFNPRSF(averaged) F9Y (TLNPNAKEYNPRSF)
DMS-derived PSSM value (averaged), position F9 (prey ATXN2, TLNPNAKEFNPRSF(averaged) over the two overlapping peptides, F = wild type): 0.1609

TLNPNAKEFNPRSF(averaged) K7T (TLNPNATEFNPRSF)
DMS-derived PSSM value (averaged), position K7 [13]: 0.01485

TLNPNAKEFNPRSF(averaged) R12I (TLNPNAKEFNPISF)
DMS-derived PSSM value (averaged), position R12 [1]: 0.04426

KSTLNPNAKEFNPRSF N5F (KSTLFPNAKEFNPRSF)
DMS-derived PSSM value, position N5 [10]: 0

TLNPNAKEFNPRSFSQ F14V (TLNPNAKEFNPRSVSQ)
DMS-derived PSSM value, position F14 [2]: 0.06499

TLNPNAKEFNPRSFSQ S15W (TLNPNAKEFNPRSFWQ)
DMS-derived PSSM value, position S15 [3]: 0.05986

TLNPNAKEFNPRSFSQ R12W (TLNPNAKEFNPWSFSQ)
DMS-derived PSSM value, position R12 [4]: 0.01782

TLNPNAKEFNPRSFSQ N3I (TLIPNAKEFNPRSFSQ)
DMS-derived PSSM value, position N3 [12]: 0

TLNPNAKEFNPRSFSQ L2T (TTNPNAKEFNPRSFSQ)
DMS-derived PSSM value, position L2 [11]: 0

TLNPNAKEFNPRSFSQ T1V (VLNPNAKEFNPRSFSQ)
DMS-derived PSSM value, position T1 [6]: 0.03168

TLNPNAKEFNPRSF(averaged) K7Y (TLNPNAYEFNPRSF)
DMS-derived PSSM value (averaged), position K7 [13]: 0.2476

KSTLNPNAKEFNPRSF L4H (KSTHNPNAKEFNPRSF)
DMS-derived PSSM value, position L4 (prey ATXN2, peptide KSTLNPNAKEFNPRSF, L = wild type): 0

KSTLNPNAKEFNPRSF P6Q (KSTLNQNAKEFNPRSF)
DMS-derived PSSM value, position P6 [14]: 0

KSTLNPNAKEFNPRSF N7F (KSTLNPFAKEFNPRSF)
DMS-derived PSSM value, position N7 [10]: 0.07049

KSTLNPNAKEFNPRSF A8E (KSTLNPNEKEFNPRSF)
DMS-derived PSSM value, position A8 [5]: 0

TLNPNAKEFNPRSFSQ L2R (TRNPNAKEFNPRSFSQ)
DMS-derived PSSM value, position L2 [11]: 0

TLNPNAKEFNPRSF(averaged) P4D (TLNDNAKEFNPRSF)
DMS-derived PSSM value (averaged), position P4 [15]: 0

TLNPNAKEFNPRSF(averaged) N5A (TLNPAAKEFNPRSF)
DMS-derived PSSM value (averaged), position N5 [8]: 0.00733

KSTLNPNAKEFNPRSF N7P (KSTLNPPAKEFNPRSF)
DMS-derived PSSM value, position N7 [10]: 0

KSTLNPNAKEFNPRSF P13E (KSTLNPNAKEFNERSF)
DMS-derived PSSM value, position P13 [14]: 0.006076

TLNPNAKEFNPRSF(averaged) L2K (TKNPNAKEFNPRSF)
DMS-derived PSSM value (averaged), position L2 [16]: 0.0007818

TLNPNAKEFNPRSFSQ N10P (TLNPNAKEFPPRSFSQ)
DMS-derived PSSM value, position N10 [12]: 0.06147

TLNPNAKEFNPRSFSQ P11E (TLNPNAKEFNERSFSQ)
DMS-derived PSSM value, position P11 [9]: 0.0006031

KSTLNPNAKEFNPRSF F16T (KSTLNPNAKEFNPRST)
DMS-derived PSSM value, position F16 [7]: 0.02121

TLNPNAKEFNPRSFSQ P4N (TLNNNAKEFNPRSFSQ)
DMS-derived PSSM value, position P4 [9]: 0.001049

KSTLNPNAKEFNPRSF F16M (KSTLNPNAKEFNPRSM)
DMS-derived PSSM value, position F16 [7]: 0.02916

TLNPNAKEFNPRSF(averaged) E8Y (TLNPNAKYFNPRSF)
DMS-derived PSSM value (averaged), position E8 [1]: 0.02496

TLNPNAKEFNPRSFSQ N5H (TLNPHAKEFNPRSFSQ)
DMS-derived PSSM value, position N5 [12]: 0.04051

TLNPNAKEFNPRSF(averaged) L2Y (TYNPNAKEFNPRSF)
DMS-derived PSSM value (averaged), position L2 [16]: 0.0552

TLNPNAKEFNPRSF(averaged) K7R (TLNPNAREFNPRSF)
DMS-derived PSSM value (averaged), position K7 [13]: 0.01712

KSTLNPNAKEFNPRSF N5S (KSTLSPNAKEFNPRSF)
DMS-derived PSSM value, position N5 [10]: 0.0715

TLNPNAKEFNPRSF(averaged) E8N (TLNPNAKNFNPRSF)
DMS-derived PSSM value (averaged), position E8 [1]: 0.07264

TLNPNAKEFNPRSF(averaged) R12D (TLNPNAKEFNPDSF)
DMS-derived PSSM value (averaged), position R12 [1]: 0.02577

TLNPNAKEFNPRSF(averaged) E8P (TLNPNAKPFNPRSF)
DMS-derived PSSM value (averaged), position E8 [1]: 0.1423

TLNPNAKEFNPRSF(averaged) P4Q (TLNQNAKEFNPRSF)
DMS-derived PSSM value (averaged), position P4 [15]: 0.01774

KSTLNPNAKEFNPRSF N12G (KSTLNPNAKEFGPRSF)
DMS-derived PSSM value, position N12 [10]: 0.02172

TLNPNAKEFNPRSF(averaged) K7H (TLNPNAHEFNPRSF)
DMS-derived PSSM value (averaged), position K7 [13]: 0.03669

TLNPNAKEFNPRSF(averaged) P11I (TLNPNAKEFNIRSF)
DMS-derived PSSM value (averaged), position P11 [15]: 0.006686

TLNPNAKEFNPRSFSQ L2S (TSNPNAKEFNPRSFSQ)
DMS-derived PSSM value, position L2 [11]: 0

TLNPNAKEFNPRSF(averaged) P11D (TLNPNAKEFNDRSF)
DMS-derived PSSM value (averaged), position P11 [15]: 0.002991

KSTLNPNAKEFNPRSF N12S (KSTLNPNAKEFSPRSF)
DMS-derived PSSM value, position N12 [10]: 0.008786

Source: PMC12102759 (Protein Science : A Publication of the Protein Society, 2025)
